Data as given in US9084424B2, “N-benzyl heterocyclic carboxamides” (BAYER INTELLECTUAL PROPERTY GMBH, priority 2010, dated 2015).

Legend:
[1] = log P by HPLC on reversed-phase column (EEC Directive 79/831 Annex V.A8); format: physicochemical; conditions: 0.1% aqueous formic acid and acetonitrile, linear gradient 10% to 90% acetonitrile
Summary of the method: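 Reversed-phase C18 HPLC at 40° C with a linear 10% to 90% acetonitrile gradient against 0.1% aqueous formic acid. Log P is read from retention time by linear interpolation between successive unbranched alkan-2-ones (C3–C16) of known log P. UV spectra from 200 to 400 nm, taken at chromatographic peak maxima, give lambda-max.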

Sphaerotheca fuliginea = experiment: In vivo preventive test on Sphaerotheca fuliginea (cucumber); conditions: preventive spray, 500 ppm of active ingredient, evaluated 7 days after inoculation
Procedure: In Vivo Preventive Test on Sphaerotheca fuliginea (Cucumber)
(§1) Solvent: 49 parts by weight of N,N-dimethylformamide
(§2) Emulsifier: 1 part by weight of alkylarylpolyglycolether
(§3) To produce a suitable preparation of active compound, 1 part by weight of active compound is mixed with the stated amounts of solvent and emulsifier, and the concentrate is diluted with water to the desired concentration.
To test for preventive activity, young plants are sprayed with the preparation of active compound at the stated rate of application. After the spray coating has dried on, the plants are inoculated with an aqueous spore suspension of Sphaerotheca fuliginea. The plants are then placed in a greenhouse at approximately 23° C. and a relative atmospheric humidity of approximately 70%.
(§4) The test is evaluated 7 days after the inoculation. 0% means an efficacy which corresponds to that of the untreated control, while an efficacy of 100% means that no disease is observed.

Alternaria solani = experiment: In vivo preventive test on Alternaria solani (tomato); conditions: preventive spray, 500 ppm of active ingredient, evaluated 7 days after inoculation
Procedure: In Vivo Preventive Test on Alternaria Solani (Tomato)
as §1, §2, §3
To test for preventive activity, young plants are sprayed with the preparation of active compound at the stated rate of application. One day after this treatment, the plants are inoculated with an aqueous spore suspension of Alternaria solani. The plants remain for one day in an incubation cabinet at approximately 22° C. and a relative atmospheric humidity of 100%. Then the plants are placed in an incubation cabinet at approximately 20° C. and a relative atmospheric humidity of 96%.
The test is evaluated 7 days after the inoculation. 0% means an efficacy which corresponds to that of the untreated control while an efficacy of 100% means that no disease is observed.

Pyrenophora teres = experiment: In vivo preventive test on Pyrenophora teres (barley); conditions: preventive spray, 500 ppm of active ingredient, evaluated 7-9 days after inoculation
Summary of the method: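 Young barley plants were sprayed with compound formulated in N,N-dimethylacetamide/emulsifier and diluted with water, then inoculated with P. teres spores one day later. After 48 h at 22° C., 100% humidity, plants stood in a greenhouse (~20° C., ~80% humidity); efficacy versus untreated control was scored 7-9 days post-inoculation.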

Leptosphaeria nodorum = experiment: In vivo preventive test on Leptosphaeria nodorum (wheat); conditions: preventive spray, 500 ppm of active ingredient, evaluated 7-9 days after inoculation
Procedure: In Vivo Preventive Test on Leptosphaeria nodorum (Wheat)
(§5) Solvent: 49 parts by weight of N,N-dimethylacetamide
(§6) Emulsifier: 1 part by weight of alkylaryl polyglycol ether
as §3
To test for preventive activity, young plants are sprayed with a preparation of active compound at the stated rate of application. One day after this treatment, the plants are inoculated with an aqueous spore suspension of Leptosphaeria nodorum. The plants remain for 48 hours in an incubation cabinet at 22° C. and a relative atmospheric humidity of 100%. Then the plants are placed in a greenhouse at a temperature of approximately 22° C. and a relative atmospheric humidity of approximately 90%.
The test is evaluated 7-9 days after the inoculation. 0% means an efficacy which corresponds to that of the untreated control, while an efficacy of 100% means that no disease is observed.
Under these conditions, good (at least 70%) to excellent protection (at least 95%) is observed at a dose of 500 ppm of active ingredient with the following compounds from table D: […]

Septoria tritici = experiment: In vivo preventive test on Septoria tritici (wheat); conditions: preventive spray, 500 ppm of active ingredient, evaluated 21 days after inoculation
Procedure: In Vivo Preventive Test on Septoria tritici (Wheat)
as §5, §6
(§7) To produce a suitable preparation of active compound, 1 part by weight of active compound or active compound combination is mixed with the stated amounts of solvent and emulsifier, and the concentrate is diluted with water to the desired concentration.
(§8) To test for preventive activity, young plants are sprayed with the preparation of active compound or active compound combination at the stated rate of application.
After the spray coating has been dried, the plants are sprayed with a spore suspension of Septoria tritici. The plants remain for 48 hours in an incubation cabinet at approximately 20° C. and a relative atmospheric humidity of approximately 100% and afterwards for 60 hours at approximately 15° C. in a translucent incubation cabinet at a relative atmospheric humidity of approximately 100%.
The plants are placed in the greenhouse at a temperature of approximately 15° C. and a relative atmospheric humidity of approximately 80%.
The test is evaluated 21 days after the inoculation. 0% means an efficacy which corresponds to that of the untreated control, while an efficacy of 100% means that no disease is observed.

Puccinia triticina = experiment: In vivo preventive test on Puccinia triticina (wheat); conditions: preventive spray, 500 ppm of active ingredient, evaluated 8 days after inoculation
Procedure: In Vivo Preventive Test on Puccinia triticina (Wheat)
as §5, §6, §7, §8
After the spray coating has been dried, the plants are sprayed with a spore suspension of Puccinia triticina. The plants remain for 48 hours in an incubation cabinet at approximately 20° C. and a relative atmospheric humidity of approximately 100%.
The plants are placed in the greenhouse at a temperature of approximately 20° C. and a relative atmospheric humidity of approximately 80%.
The test is evaluated 8 days after the inoculation. 0% means an efficacy which corresponds to that of the untreated control, while an efficacy of 100% means that no disease is observed.

[2] = test system: Blumeria graminis f.sp. hordei; experiment: In vivo preventive test on Blumeria graminis (barley); conditions: preventive spray, 500 ppm of active ingredient, evaluated 7 days after inoculation
Procedure: In Vivo Preventive Test on Blumeria graminis (Barley)
as §5, §6, §7, §8
After the spray coating has been dried, the plants are dusted with spores of Blumeria graminis f.sp. hordei.
The plants are placed in the greenhouse at a temperature of approximately 18° C. and a relative atmospheric humidity of approximately 80% to promote the development of mildew pustules.
as §4

[3] = HPLC, reversed-phase C 18, 40° C.
[4] = HPLC on reversed-phase column (C 18), 40° C.

Compound | logP [1, 3] | logP [1, 4] | Efficacy (Sphaerotheca fuliginea) [%] | Efficacy (Alternaria solani) [%] | Efficacy (Pyrenophora teres) [%] | Efficacy (Leptosphaeria nodorum) [%] | Efficacy (Septoria tritici) [%] | Efficacy (Puccinia triticina) [%] | Efficacy [2] [%]
CC(c1ccccc1Cl)N(C)C(=S)c1c(C(F)F)nn(C)c1F (racemic) [Example 18] | 3.44 |  | 90 | 95 | 100 | 95 |  |  | 
CC(c1ccc(Oc2ccccc2)cc1)N(C)C(=O)c1c(C(F)F)nn(C)c1F (racemic) [Example 154] |  | 3.59 |  | 95 | 100 | 70 |  |  | 
Cn1nc(C(F)F)c(C(=O)N(Cc2ccc(Cl)cc2Cl)C2CCC2)c1Cl [Example 30] | 4.39 |  |  |  | 100 | 90 |  |  | 
Cn1nc(C(F)F)c(C(=O)N(Cc2ccc(Cl)cc2Cl)C2CCC2)c1F [Example 31] | 4.19 |  |  |  | 100 | 80 |  |  | 
CC(NC(=S)c1c(C(F)F)nn(C)c1Cl)c1ccc(Cl)cc1Cl (centres unmarked) [Example 44] | 3.99 |  |  | 100 | 100 | 89 |  |  | 
CCN(Cc1ccccc1C(C)C)C(=O)c1c(C(F)F)nn(C)c1F [Example 68] | 3.42 |  | 100 | 80 | 100 |  | 100 | 70 | 100
CC(C)c1ccccc1CN(C)C(=O)c1c(C(F)F)nn(C)c1F [Example 72] | 3.11 |  | 98 | 95 | 100 | 78 | 90 |  | 100
CC(C)c1ccccc1CNC(=O)c1c(C(F)F)nn(C)c1F [Example 74] | 3.02 |  | 95 | 95 | 100 | 80 |  |  | 
CON(Cc1ccccc1C(C)C)C(=O)c1c(C(F)F)nn(C)c1F [Example 76] | 3.37 |  | 93 | 94 |  | 89 |  |  | 
CC(C)c1ccccc1CNC(=O)c1c(C(F)F)nn(C)c1Cl [Example 79] | 3.19 |  |  |  | 95 | 94 |  |  | 
Cn1nc(C(F)F)c(C(=O)N(Cc2ccccc2[Si](C)(C)C)C2CCC2)c1F [Example 98] | 4.61 |  | 96 | 70 |  |  |  | 95 | 
CCN(Cc1ccccc1[Si](C)(C)C)C(=O)c1c(C(F)F)nn(C)c1F [Example 99] | 4.09 |  | 95 | 95 | 95 |  |  | 100 | 
C=CCN(Cc1ccccc1[Si](C)(C)C)C(=O)c1c(C(F)F)nn(C)c1F [Example 100] | 4.27 |  |  | 80 |  |  |  | 80 | 
C#CCN(Cc1ccccc1[Si](C)(C)C)C(=O)c1c(C(F)F)nn(C)c1F [Example 101] | 3.93 |  |  | 70 | 80 |  |  | 90 | 
Cn1nc(C(F)F)c(C(=O)NCc2ccccc2SC(F)(F)F)c1Cl [Example 106] |  | 3.29 |  |  | 90 |  |  | 80 | 
CC(c1cc(Cl)cc(Cl)c1)N(C)C(=S)c1c(C(F)F)nn(C)c1F (centres unmarked) [Example 118] |  | 4.24 | 95 | 100 | 100 | 70 |  |  | 
CN(Cc1ncc(Cl)cc1Cl)C(=O)c1c(C(F)F)nn(C)c1F [Example 179] |  | 2.53 |  | 90 | 100 | 70 |  |  | 
CC(c1ncc(Cl)cc1Cl)N(C)C(=O)c1c(C(F)F)nn(C)c1F (centres unmarked) [Example 185] |  | 2.92 |  | 100 | 95 | 95 | 100 | 90 | 100
CC(c1ncc(Cl)cc1Cl)N(C(=O)c1c(C(F)F)nn(C)c1F)C1CCCC1 (centres unmarked) [Example 187] |  | 4.44 |  |  | 90 | 80 |  |  | 

The next lines start with results.

logP [1, 3] | logP [1, 4] | Compound | Efficacy (Sphaerotheca fuliginea) [%] | Efficacy (Alternaria solani) [%] | Efficacy (Pyrenophora teres) [%] | Efficacy (Leptosphaeria nodorum) [%] | Efficacy (Septoria tritici) [%] | Efficacy (Puccinia triticina) [%] | Efficacy [2] [%]
3.13 |  | CC(NC(=O)c1c(C(F)F)nn(C)c1F)c1cccc(Cl)c1Cl (racemic) [Example 29] |  | 94 | 100 |  | 88 |  | 
4.39 |  | Cn1nc(C(F)F)c(C(=O)NC(C)(C)c2ccc(Cl)cc2Cl)c1F [Example 39] | 95 | 70 | 95 | 90 |  |  | 
3.65 |  | CON(C(=O)c1c(C(F)F)nn(C)c1F)C(C)c1ccc(Cl)cc1Cl (centres unmarked) [Example 45] | 100 |  | 100 | 95 |  |  | 
3.15 |  | CC(c1cc(Cl)ccc1Cl)N(C)C(=O)c1c(C(F)F)nn(C)c1F (centres unmarked) [Example 56] | 95 | 100 | 100 | 70 |  |  | 
3.81 |  | Cn1nc(C(F)F)c(C(=O)N(Cc2c(Cl)cccc2C(F)(F)F)C2CCC2)c1F [Example 90] | 100 | 95 | 100 |  | 100 | 95 | 100
 | 3.46 | CC(c1cc(Cl)cc(Cl)c1)N(C)C(=O)c1c(C(F)F)nn(C)c1F (centres unmarked) [Example 117] | 95 | 100 | 100 | 70 |  | 70 | 
 | 3.41 | Cn1nc(C(F)F)c(C(=O)NC2(c3ccc(Cl)c(C(F)(F)F)c3)CC2)c1Cl [Example 126] |  |  | 95 |  |  | 78 | 
 | 2.73 | CN(Cc1ncc(Cl)cc1Cl)C(=O)c1c(C(F)F)nn(C)c1Cl [Example 180] |  | 80 | 100 |  |  | 80 | 
 | 2.73 | CON(Cc1ncc(Cl)cc1Cl)C(=O)c1c(C(F)F)nn(C)c1F [Example 181] |  | 80 | 100 | 70 |  | 70 | 
 | 4.11 | Cn1nc(C(F)F)c(C(=O)N(Cc2ncc(Cl)cc2Cl)C2CCCC2)c1Cl [Example 184] |  |  |  |  |  | 70 | 
